Consider 4 compounds from patent publication US5565455A, “Method for treating substance abuse disorders” (priority 1992, dated 1996).

Where a name gives a salt, the structure may show the parent alone. Read-outs that look alike come from different tables or passages of the source.

Series [1] deals with voluntary ethanol consumption in rats. As to conditions: cited from earlier work.
Series [2] deals with 5-HT2 (Homo sapiens, UniProt P28223). The series is described as follows: Drug affinity for 5-HT2 receptor, radioligand 3H-ketanserin, cerebral cortex.
Series [3] has as its system 5-HT reuptake, synaptosomes from rat frontal cortex. Description: Inhibition of reuptake of [3H-5-HT] by synaptosomes from rat frontal cortex. The series is classed as biochemical. As to conditions: method of Shank et al.
For series [4], the target named is T1, 5-HT1A (Homo sapiens, UniProt P08908).
T1 sequence (P08908 1-422): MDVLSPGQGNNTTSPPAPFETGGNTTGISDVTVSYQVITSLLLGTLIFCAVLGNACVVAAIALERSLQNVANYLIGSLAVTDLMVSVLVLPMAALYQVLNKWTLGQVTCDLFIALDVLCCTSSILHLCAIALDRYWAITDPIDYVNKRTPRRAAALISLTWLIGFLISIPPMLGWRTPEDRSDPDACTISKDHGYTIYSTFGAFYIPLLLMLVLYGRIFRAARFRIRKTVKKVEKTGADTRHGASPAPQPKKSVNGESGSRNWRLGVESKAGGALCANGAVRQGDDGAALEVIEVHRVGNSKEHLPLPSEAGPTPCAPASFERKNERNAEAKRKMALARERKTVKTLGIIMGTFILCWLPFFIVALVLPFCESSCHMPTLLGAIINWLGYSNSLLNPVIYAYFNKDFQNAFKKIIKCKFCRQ
Description: biochemical. It is filed as binding.

Series [5] deals with consumption of alcohol by monkeys. The following applies: cited from earlier work.
Series [6] relates to alcohol-dependent individuals. The following applies: cited from earlier work.
For series [7], the system named is Sprague-Dawley rats induced to drink alcohol chronically. Description: Alcohol drinking in Sprague-Dawley rats induced by cyanamide injections. The series is classed as in vivo, rat. On the procedure:
To further illustrate the useful pharmacological properties of FG5893, the effect of FG5893 administered systemically was determined in Sprague-Dawley rats induced to drink alcohol chronically by a series of intraperitoneal injections of cyan-amide according to experimental procedures described previously (Critcher, E. C. and R. D. Myers, Alcohol 4:347-353, 1987). Intakes of food and body weights were recorded.
FG5893 in a dose of 0.5, 1.0 and 2.5 mg/kg was administered twice a day for three consecutive days. […] This finding is notable because drugs that attenuate the preference for alcohol consumed in a concentration of pharmacological consequence typically impair the ingestion of food.

Setting [8] is: clinical trial versus placebo in alcohol-dependent individuals.
Where [9] appears, read: 0.5, 1.0 and 2.5 mg/kg twice a day for three consecutive days, all doses.

5-HT2, sequence (P28223 whole entry, species assumed): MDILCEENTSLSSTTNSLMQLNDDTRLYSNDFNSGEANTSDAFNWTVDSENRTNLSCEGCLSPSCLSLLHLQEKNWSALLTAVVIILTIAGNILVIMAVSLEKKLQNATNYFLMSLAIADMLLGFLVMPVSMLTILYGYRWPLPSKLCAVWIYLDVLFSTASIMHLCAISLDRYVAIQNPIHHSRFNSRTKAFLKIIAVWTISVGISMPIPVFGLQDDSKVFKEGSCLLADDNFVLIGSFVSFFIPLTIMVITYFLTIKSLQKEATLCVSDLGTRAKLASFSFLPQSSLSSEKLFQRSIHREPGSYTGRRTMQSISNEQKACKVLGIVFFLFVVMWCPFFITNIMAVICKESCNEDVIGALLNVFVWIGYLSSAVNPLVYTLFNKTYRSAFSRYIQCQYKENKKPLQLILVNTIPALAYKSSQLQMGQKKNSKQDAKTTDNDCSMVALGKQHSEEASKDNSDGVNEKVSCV

As to `CCNC(=O)N1CCN(CCCC(c2ccc(F)cc2)c2ccc(F)cc2)CC1` [Amperozide], the “consumption of food and level of body weight” value in series [1] (rat, in vivo) was “without affecting”. The “intake of alcohol in rats” value in series [1] (rats) was “significantly attenuate”. In addition, the results for the Ki in series [2] and in series [4] were 17 nM and 805 nM, respectively. Further, the IC50 – broadly, the concentration that gives 50% inhibition – in series [3] stood at 320 nM.

In the case of `O=C1CC2(CCCC2)CC(=O)N1CCCCN1CCN(c2ncccn2)CC1` [Buspirone], the “consumption of alcohol by monkeys” value in series [5] is recorded as “attenuate significantly”. Also, in series [6] (setting [8]), the drop-out rate entry is recorded as “lower drop-out rate” and the signs of craving result is recorded as “fewer signs of craving”.

In the case of `COC(=O)c1cccnc1N1CCN(CCCC(c2ccc(F)cc2)c2ccc(F)cc2)CC1` [FG5893, 2-[4-[4,4-bis(4-fluorophenyl)butyl]-1-piperazinyl]-3-pyridinecarboxylic acid methyl ester dihydrochloride ethylat], the Ki (usually a dissociation constant, usually derived from enzyme kinetics or from competition with a known ligand) in series [2] is 4 nM. Also, the IC50 in series [3] worked out at 80 nM. In series [7] (setting [9]), the “intake of alcohol, absolute g/kg” value was “significantly reduced” and the “proportion of alcohol to total fluid intake” value was “significantly reduced”. The “alcohol consumption after the injection sequence” value in series [7] (1.0 and 2.5 mg/kg doses, two 4-day tests immediately following the injection sequence and after a 40-day interval) was “continued to suppress alcohol consumption”. Further, in series [7] (during or after administration), the body weights result was “Neither body weights nor intakes of food of the rats were affected” and the intakes of food entry is reported as “Neither body weights nor intakes of food of the rats were affected”. Also, the Ki in series [4] (Radioligand 3H-8-OH-DPAT, tissue hippocampus) was determined as 0.7 nM.

As to `CN(C)C/C=C(/c1ccc(Br)cc1)c1cccnc1` [Zimelidine], in series [6] (human trials), the “number of abstinent days” value was “increase” and the “number of daily drinks” value was “slight reduction”. Also, the “ingestion of food and alcohol” value in series [1] (concomitantly) is reported as “attenuate”. In addition, the “voluntary ethanol consumption in rats” value in series [1] (rats) is “potent inhibitory effect”. In addition, in series [3], the IC50 was 120 nM.
